This passage reports IC50 results from US20250388543A1, “HETEROARYL COMPOUNDS FOR THE TREATMENT OF PAIN” (VERTEX PHARMACEUTICALS INCORPORATED, priority 2022, published 2025).

Usually IC50 stands for the midpoint of a concentration-inhibition curve.

Chain of human NaV 1.8 (Q9Y5Y9 126-1722 limits assumed): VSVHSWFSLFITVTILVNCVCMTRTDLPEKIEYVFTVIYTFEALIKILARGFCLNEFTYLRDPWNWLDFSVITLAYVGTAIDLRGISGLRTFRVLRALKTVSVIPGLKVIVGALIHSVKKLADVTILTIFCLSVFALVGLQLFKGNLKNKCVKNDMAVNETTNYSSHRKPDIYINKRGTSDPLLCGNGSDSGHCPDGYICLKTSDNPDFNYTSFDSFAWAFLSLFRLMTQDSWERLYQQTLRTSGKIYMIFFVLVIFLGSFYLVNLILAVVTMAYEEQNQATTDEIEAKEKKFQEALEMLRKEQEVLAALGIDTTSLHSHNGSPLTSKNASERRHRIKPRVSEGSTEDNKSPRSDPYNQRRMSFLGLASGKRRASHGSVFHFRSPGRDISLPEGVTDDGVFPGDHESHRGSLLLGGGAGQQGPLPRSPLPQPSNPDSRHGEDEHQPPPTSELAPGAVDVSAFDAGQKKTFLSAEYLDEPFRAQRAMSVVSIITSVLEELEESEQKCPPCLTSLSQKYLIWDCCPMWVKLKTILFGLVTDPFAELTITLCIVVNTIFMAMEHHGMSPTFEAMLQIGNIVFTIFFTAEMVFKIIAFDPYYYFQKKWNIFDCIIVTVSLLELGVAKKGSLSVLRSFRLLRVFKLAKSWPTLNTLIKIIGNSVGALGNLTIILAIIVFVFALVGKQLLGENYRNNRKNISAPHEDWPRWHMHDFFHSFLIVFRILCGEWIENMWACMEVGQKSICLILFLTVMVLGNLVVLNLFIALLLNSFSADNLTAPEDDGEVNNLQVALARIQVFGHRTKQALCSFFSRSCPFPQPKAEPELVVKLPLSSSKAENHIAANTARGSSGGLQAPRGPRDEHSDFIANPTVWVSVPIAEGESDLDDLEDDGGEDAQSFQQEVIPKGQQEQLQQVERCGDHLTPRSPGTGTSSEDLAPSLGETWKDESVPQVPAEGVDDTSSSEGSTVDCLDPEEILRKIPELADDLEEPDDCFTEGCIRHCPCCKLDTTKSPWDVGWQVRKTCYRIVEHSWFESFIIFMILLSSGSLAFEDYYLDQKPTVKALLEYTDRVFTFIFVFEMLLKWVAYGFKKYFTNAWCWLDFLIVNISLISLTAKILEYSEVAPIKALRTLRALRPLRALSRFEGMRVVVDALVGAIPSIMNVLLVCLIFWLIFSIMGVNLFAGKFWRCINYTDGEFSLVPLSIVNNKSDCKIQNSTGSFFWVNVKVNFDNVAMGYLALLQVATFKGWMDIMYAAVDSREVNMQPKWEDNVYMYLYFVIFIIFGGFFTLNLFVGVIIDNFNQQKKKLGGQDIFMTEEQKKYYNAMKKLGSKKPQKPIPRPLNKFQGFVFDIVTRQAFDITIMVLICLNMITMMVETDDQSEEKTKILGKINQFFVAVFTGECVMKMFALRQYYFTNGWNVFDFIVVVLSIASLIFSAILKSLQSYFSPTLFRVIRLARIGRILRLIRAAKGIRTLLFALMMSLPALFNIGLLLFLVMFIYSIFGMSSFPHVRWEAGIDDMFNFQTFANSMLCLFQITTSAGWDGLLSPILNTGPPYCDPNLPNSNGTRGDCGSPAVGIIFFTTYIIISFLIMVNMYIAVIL

The experiment concerns the target human NaV 1.8 (Homo sapiens, UniProt Q9Y5Y9). Kind of experiment: E-VIPR Assay Detecting and Measuring NaV Inhibition Properties. The experiment is classed as cell-based. The note with it: HEK cells expressing a truncated form of human NaV 1.8 with full channel activity; electrical stimulation, membrane-potential FRET dyes; 30 minutes compound incubation; read-out: measured IC50 value in the E-VIPR Assay. An excerpt:
E-VIPR Assay Detecting and Measuring NaV Inhibition Properties
Sodium ion channels are voltage-dependent proteins that can be activated by inducing membrane voltage changes by applying electric fields. The electrical stimulation instrument and methods of use, referred to as E-VIPR, are described in International Publication No. WO 2002/008748 A3 and C.-J. Huang et al. Characterization of voltage-gated sodium channel blockers by electrical stimulation and fluorescence detection of membrane potential, 24 Nature Biotech. 439-46 (2006), both of which are incorporated by reference in their entirety. The instrument comprises a microtiter plate handler, an optical system for exciting the coumarin dye while simultaneously recording the coumarin and oxonol emissions, a waveform generator, a current- or voltage-controlled amplifier, and parallel electrode pairs that are inserted into assay plate wells. Under integrated computer control, this instrument passes user-programmed electrical stimulus protocols to cells within the wells of the microtiter plate.
16-20 hours prior to running the assay on E-VIPR, HEK cells expressing a truncated form of human NaV 1.8 with full channel activity were seeded into microtiter 384-well plates, pre-coated with matrigel, at a density of 25,000 cells per well. 2.5-5% KIR2.1 BacMam virus was added to the final cell suspension before seeding into cell plates. HEK cells were grown in Dulbecco's Modified Eagle's Medium (DMEM) supplemented with 10% FBS (Fetal Bovine Serum, qualified; Sigma #F4135), 1% NEAA (Non-Essential Amino Acids, Gibco #11140), 1% HEPES (Gibco #15630), 1% Pen-Strep (Penicillin-Streptomycin; Gibco #15140) and 5 μg/ml Blasticidin (Gibco #R210-01). Cells were expanded in 5-layer CellSTACK culture chambers or cell culture flasks with vented caps, with 90-95% humidity and 5% CO2.
Reagents and Stock Solutions:
100 mg/mL Pluronic F-127 (Sigma #P2443), in dry DMSO
Compound Plates: Corning 384-well Polypropylene Round Bottom #3656
Cell Plates: 384-well tissue culture treated plates (Greiner #781091-2B)
2.5-5% KIR 2.1 Bacmam virus (produced in-house), prepared as described in Section 3.3 of J. A. Fornwald et al., Gene Expression in Mammalian Cells Using BacMam, a Modified Baculovirus System, 1350 Methods in Molecular Biology 95-116 (2016), the entire contents of which are incorporated by reference. The concentration used can be dependent on viral titer of each batch.
5 mM DiSBAC6(3), a voltage sensitive oxonol acceptor (CAS number 169211-44-3; 5-[3-(1,3-dihexylhexahydro-4,6-dioxo-2-thioxo-5-pyrimidinyl)-2-propen-1-ylidene]-1,3-dihexyldihydro-2-thioxo-4,6(1H,5H)-pyrimidinedione), in dry DMSO. The preparation of DiSBAC6(3) is analogous to that of DiSBAC4(3) as described in Voltage Sensing by Fluorescence Resonance Energy Transfer in Single Cells, Gonzalez, J. E. and Tsien, R. Y. (1995) Biophys. J. 69, 1272-1280.
5 mM CC2-DMPE, a commercially available membrane-bound coumarin phospholipid FRET donor (ThermoFisher Scientific catalog number K1017, CAS number 393782-57-5; tetradecanoic acid, 1,1′-[(1R)-1-[8-(6-chloro-7-hydroxy-2-oxo-2H-1-benzopyran-3-yl)-3-hydroxy-3-oxido-8-oxo-2,4-dioxa-7-aza-3-phosphaoct-1-yl]-1,2-ethanediyl]ester) was prepared in dry DMSO. See also, Improved indicators of cell membrane potential that use fluorescence resonance energy transfer, Gonzalez, J. E. and Tsien, R. Y. (1997) Chem. Biol. 4, 269-277.
Voltage Assay Background Suppression Compound (VABSC-1) is prepared in H2O (89-363 mM, range used to maintain solubility)
Human Serum (HS, Millipore #S1P1-01KL, or Sigma SLBR5469V and SLBR5470V as a 50%/50% mixture, for 25% assay final concentration)
Sodium Chloride 160 mM (9.35 g/L), Potassium Chloride, 4.5 mM (0.335 g/L), Glucose 10 mM (1.8 g/L), Magnesium Chloride (Anhydrous) 1 mM (0.095 g/L), Calcium Chloride 2 mM (0.222 g/L), HEPES 10 mM (2.38 g/L) in water. […]
Consider `Cc1cc(=O)cc(-c2c(C(F)(F)F)ccnc2N2CCCC(F)(F)CC2)[nH]1` [Compound 318, 2-[2-(4,4-difluoroazepan-1-yl)-4-(trifluoromethyl)-3-pyridyl]-6-methyl-1H-pyridin-4-one], for which the IC50 was no less than 5000 nM. For the molecule `CCOC(=O)c1c(-c2cc3ccccc3nc2N2CCCOCC2)[nH]c(C)c(OC)c1=O` [Compound 227, ethyl 5-methoxy-6-methyl-2-[2-(1,4-oxazepan-4-yl)-3-quinolyl]-4-oxo-1H-pyridine-3-carboxylate], the IC50 was in the range of 2000 to 5000 nM. The figure for `CCOC(=O)c1c(-c2cc3ccccc3nc2N2CCC[C@@H](OC)C2)[nH]c(C)c(OC)c1=O` [Compound 224, ethyl 5-methoxy-2-[2-[(3R)-3-methoxy-1-piperidyl]-3-quinolyl]-6-methyl-4-oxo-1H-pyridine-3-carboxylate] is 2000 to 5000 nM; for `Cc1cc(=O)cc(-c2cnc(C(F)(F)F)nc2C2CCC(F)(F)CC2)[nH]1` [Compound 109, 2-[4-(4,4-difluorocyclohexyl)-2-(trifluoromethyl)pyrimidin-5-yl]-6-methyl-1H-pyridin-4-one] it is 2000 to 5000 nM; for `Cc1cc(=O)cc(-c2ccc(C(C)(C)C)cc2OCC2CC2(F)F)[nH]1` (centres unmarked) [Compound 136] it is 2000 to 5000 nM.

In the case of `Cc1cc(=O)cc(-c2cc(C(F)(F)F)ncc2C2CCC(C(F)(F)F)CC2)[nH]1` (centres unmarked) [Compound 321, 2-methyl-6-[2-(trifluoromethyl)-5-[4-(trifluoromethyl)cyclohexyl]-4-pyridyl]-1H-pyridin-4-one], the half-inhibitory concentration (IC50) was no less than 5000 nM. The figure for `Cc1cc(C(C)(C)C)cc(Oc2ccc(F)cc2O)c1-c1cc(=O)cc[nH]1` [Compound 160, 2-[4-tert-butyl-2-(4-fluoro-2-hydroxy-phenoxy)-6-methyl-phenyl]-1H-pyridin-4-one] is no less than 5000 nM; for `Cc1[nH]c(-c2ccc(C(C)(C)C)cc2OCC2CC2(F)F)cc(=O)c1C` (centres unmarked) [Compound 135, 6-[4-tert-butyl-2-[(2,2-difluorocyclopropyl)methoxy]phenyl]-2,3-dimethyl-1H-pyridin-4-one] it is 500 to 2000 nM.

Regarding `CCOC(=O)c1c(-c2cc3ccccc3nc2N2CCCC(F)(F)C2)[nH]c(C)c(OC)c1=O` [Compound 226, ethyl 2-[2-(3,3-difluoro-1-piperidyl)-3-quinolyl]-5-methoxy-6-methyl-4-oxo-1H-pyridine-3-carboxylate], the IC50 lay in the range of 2000 to 5000 nM. With `Cc1c(Oc2nc3ccccc3cc2-c2cc(=O)cc[nH]2)ccc(F)c1F` [Compound 115, 2-[2-(3,4-difluoro-2-methyl-phenoxy)-3-quinolyl]-1H-pyridin-4-one], the half-inhibitory concentration (IC50) lay in the range of 500 to 2000 nM. The figure for `Cc1[nH]c(-c2c(Oc3ccc(F)c(F)c3C)ncc(C(F)(F)F)c2C)cc(=O)c1-c1cn(C)c(C)n1` [Compound 162, 6-[2-(3,4-difluoro-2-methyl-phenoxy)-4-methyl-5-(trifluoromethyl)-3-pyridyl]-3-(1,2-dimethylimidazol-4-yl)-2-methyl-1H-pyridin-4-one] is 500 to 2000 nM. The figure for `CCOC(=O)c1c(-c2cc3ccccc3nc2N2C[C@@H]3CCO[C@@H]3C2)[nH]c(C)c(OC)c1=O` [Compound 228, ethyl 2-[2-[(3aS,6aS)-2,3,3a,4,6,6a-hexahydrofuro[2,3-c]pyrrol-5-yl]-3-quinolyl]-5-methoxy-6-methyl-4-oxo-1H-pyridine-3-carboxylate] is no less than 5000 nM; for `Cc1cc(=O)cc(-c2ccc(C(F)(F)F)cc2C2=CCC(F)(F)CC2)[nH]1` [Compound 324, 2-[2-(4,4-difluorocyclohexen-1-yl)-4-(trifluoromethyl)phenyl]-6-methyl-1H-pyridin-4-one] it is no less than 5000 nM; for `Cc1cc(=O)cc(-c2ccccc2C2CC2)[nH]1` [Compound 148, 2-(2-cyclopropylphenyl)-6-methyl-1H-pyridin-4-one] it is no less than 5000 nM. The figure for `Cc1cc(=O)cc(-c2ccc(C(F)(F)F)cc2C2CCC(F)(F)CC2)[nH]1` [Compound 325, 2-[2-(4,4-difluorocyclohexyl)-4-(trifluoromethyl)phenyl]-6-methyl-1H-pyridin-4-one] is 500 to 2000 nM. For the molecule `CCOC(=O)c1c(-c2cc(C(F)(F)F)ncc2N2CCCC(F)(F)CC2)[nH]c(C)c(C)c1=O` [Compound 34, ethyl 2-[5-(4,4-difluoroazepan-1-yl)-2-(trifluoromethyl)-4-pyridyl]-5,6-dimethyl-4-oxo-1H-pyridine-3-carboxylate], the concentration for half-maximal inhibition (IC50) lay within 2000 to 5000 nM. The figure for `Cc1cc(=O)cc(-c2ccc(C(F)(F)F)cc2C2(O)CCC(F)(F)CC2)[nH]1` [Compound 323, 2-[2-(4,4-difluoro-1-hydroxy-cyclohexyl)-4-(trifluoromethyl)phenyl]-6-methyl-1H-pyridin-4-one] is no less than 5000 nM.
